In patent publication US20220347096A1, “LIPOSOMAL CANNABINOIDS AND USES THEREOF” (YISSUM RESEARCH DEVELOPMENT COMPANY OF THE HEBREW …, priority 2019, published 2022):

Experiment: Plasma CBD profile and PK after IV administration
Format: in vivo
Settings: mice; for Plasma CBD, Mean ± SD: 12 mg/kg
Description: CBD was extracted from plasma samples that were spiked with cannabigerol (CBG, 1 mg/ml in methanol, Sigma, Cat. C-141-1) used as internal standard (IS) followed by dilution of the plasma five-fold in acetonitrile. After vigorous vortex it was centrifuged, and the upper phase was analyzed. Final IS concentration in the samples was 100 ng/ml.
Plasma extracts were analyzed by LCMS method. Specifically, LC-MS/MS analyses were conducted on a Sciex (Framingham, Mass., USA) Triple Quad™ 5500 mass spectrometer coupled with a Shimadzu (Kyoto, Japan) UHPLC System. The concentrations were calculated based on a calibration curve of CBD in plasma at a range of 1-1,000 ng/ml having 100 ng/ml of IS.
IV formulation: The formulation used for IV administration was 10 mg/g CBD formulation solubilized in Cremophor:Ethanol 50:50 solution. This formulation was diluted 10-fold with saline prior to injection to result in 1 mg/ml post dilution concentration. The diluted formulation was used within 1 h after preparation. […]
At the time-points detailed below, 3 mice were euthanized with CO2 and terminal blood was immediately collected from the retro-orbital sinus in labeled 0.5 ml K3EDTA blood collection tubes (Mini Collect, Greiner-bio-one, Austria). The blood was centrifuged at 2000×g for 10 minutes before plasma was extracted, collected in labeled tubes and frozen at −20° C. immediately after collection. The samples were then stored at −80° C. pending analysis. […]

[1] = female, BALB/C, mouse, in vivo, IV 12 mg/kg

Compound: C=C(C)[C@@H]1CCC(C)=C[C@H]1c1c(O)cc(CCCCC)cc1O [CBD, 2-[(1R,6R)-6-Isopropenyl-3-methylcyclohex-2-en-1-yl]-5-pentylbenzene-1,3-diol]
- AUC(0-inf) [1]: 5020 ng·h/mL
- C0 [1]: 9460 ng/mL
- Cmax [1]: 8860 ng/mL
- Tmax [1]: 4.98 min
- clearance [1]: 39.8 mL/min/kg
- half-life [1]: 101 min
- concentration at 5 min (female, BALB/C, mouse, in vivo, IV 12 mg/kg in Cremophor:Ethanol diluted with saline, 5 min, read-out: Plasma CBD, Mean ± SD): 8860 ng/mL
- concentration at 1 h (female, BALB/C, mouse, in vivo, IV 12 mg/kg, 1 h, read-out: Plasma CBD, Mean ± SD): 177 ± 40 ng/mL
- concentration at 4 h (female, BALB/C, mouse, in vivo, IV 12 mg/kg, 4 h, read-out: Plasma CBD, Mean ± SD): 35 ± 11 ng/mL
- concentration at 8 h (female, BALB/C, mouse, in vivo, IV 12 mg/kg, 8 h, read-out: Plasma CBD, Mean ± SD): 9.5 ng/mL
- AUC (female, BALB/C, mouse, in vivo, IV 12 mg/kg, read-out: AUC0—Tlast): 5000 ng·h/mL
- Vd (female, BALB/C, mouse, in vivo, IV 12 mg/kg, read-out: Vz): 5.79 L/kg
- AUC0—Tlast/Dose (IV 12 mg/kg): 417 (hr*ng/mL)/(mg/kg)
- Cmax/Dose (IV 12 mg/kg): 738 (ng/mL)/(mg/kg)
- Plasma CBD, Mean ± SD (IV 12 mg/kg in Cremophor:Ethanol diluted with saline, 5 min): 8,856 ± 1,451 ng/ml
- Mean plasma CBD concentration normalized to dose (±SD) (IV 12 mg/kg, 5 min): 757 ± 124 ng/mL/mg/kg
- Mean plasma CBD concentration normalized to dose (±SD) (IV 12 mg/kg, 1 h): 15 ± 3.46 ng/mL/mg/kg
- Mean plasma CBD concentration normalized to dose (±SD) (IV 12 mg/kg, 4 h): 2.99 ± 0.90 ng/mL/mg/kg
- Mean plasma CBD concentration normalized to dose (±SD) (IV 12 mg/kg, 8 h): 0.81 ± 0.31 ng/mL/mg/kg
- Plasma CBD, Mean ± SD (IV 12 mg/kg, 8 h): 9.50 ± 3.67 ng/mL
- Mean plasma CBD concentration normalized to dose (±SD) (IV 12 mg/kg, 24 h): BLOD
- Plasma CBD, Mean ± SD (IV 12 mg/kg, 24 h): below the limit of detection and BLOD
- Mean plasma CBD concentration normalized to dose (±SD) (IV 12 mg/kg, 48 h): BLOD
- Plasma CBD, Mean ± SD (IV 12 mg/kg, 48 h): below the limit of detection and BLOD
